The experiment relates to P. falciparum 3D7 growth, pLDH absorbance. As to the kind of experiment: P. falciparum 3D7 growth inhibition, dose response, strain 3D7 (AID 2305).

As a reminder, the pIC50 is the IC50 on a negative log10 scale, so that one unit is a factor of ten. The low end stands for a high IC50, the high end for a low IC50.

pIC50: −log10 of the molar value.

In the case of `COc1cc2c(cc1OC)C(C(=O)Nc1cc(OC)c(OC)c(OC)c1)C(c1ccc(SC)cc1)N(C)C2=O` (centres undefined), the pIC50 is 6.00. For `CN1c2ccc([N+](=O)[O-])cc2C(C)(C)C12C=Cc1cc(Br)cc([N+](=O)[O-])c1O2` (centres undefined) the value was 6.11. In the case of `CNC(=O)COC(=O)c1c2c(nc3ccccc13)C(=Cc1ccc3c(c1)OCO3)CCC2`, the pIC50 is 6.19. For `O=C(O)C1Cc2c([nH]c3ccccc23)C(c2ccc(Cl)cc2Cl)N1` (centres undefined) the value was 6.02; for `CCOC(=O)C1=C(C)NC2=C(C(=O)CCC2)C1c1cn(Cc2ccc(Cl)cc2Cl)nc1-c1ccccc1` (centres undefined), 6.21; for `CC(C)COc1ccc(C(O)C(CN2CCCCC2)c2ccccc2)cc1` (centres undefined), 6.04. Consider `COC(=O)c1ccc(CC(C)NCC(O)c2ccc(F)c(Cl)c2)cc1` (centres undefined), for which the pIC50 was 6.07. The pIC50 values of the last two compounds are within 0.2 log units of each other. For `O=C(Cc1ccc(NC(=O)c2ccc(O)c(-c3ccc(Cl)c(Cl)c3)c2)cc1)NCCN1CCOCC1` the value was 6.09; for `CCNc1cc(C)nc(Nc2ccc(NC(=O)c3cccs3)cc2)n1`, 5.99.

On to `Nc1c2c(nc3ccc(NC(=O)c4ccccc4)cc13)CCCC2`, for which the pIC50 is 6.21. Then `O=C(NCCCCN1CCC(C(c2ccccc2)c2ccccc2)CC1)c1ccc(NC(=O)c2ccc(Cl)cc2)cc1`, with 6.11. Then `NCCCOc1cnc(-c2ccccc2)c2nc(-c3nonc3N)n(CCc3ccccc3)c12`, with 5.90; and `CCCc1cc(N2CCC(N3CCCC3)CC2)nc(Nc2ccc(Cl)cc2)n1`, with 6.12; and `O=C(CC(c1ccccc1)c1ccccc1O)N1CCOCC1` (centres undefined), with 5.82. For `CCC1CN2CCc3c([nH]c4ccc(OC)cc34)[C@@H]2C[C@@H]1CC1NCCc2cc(OC)c(OC)cc21` (some centres undefined) the value was 6.07; for `COc1ccc2nccc([C@@H](O)CN3CCC(NC(=O)/C=C/c4ccc5ccccc5n4)CC3)c2c1`, 6.00. With `COc1cc(C=NNc2cc(C)nc3ccccc23)cc(OC)c1OC`, the pIC50 is 6.14. For `CCNc1cc(C(=O)N[C@@H](Cc2ccccc2)[C@H](O)CN[C@@H]2CCc3ccccc32)cc(N2CCCCS2(=O)=O)c1` the value was 6.26; for `O=C(NCCc1ccccc1)N(Cc1ccccc1-c1ccc(CNC2CCCC2)cc1)C1CCN(Cc2ccccc2)CC1`, 5.95. In the case of `CCCCCCCN(Cc1ccc(OC(C)(C)C(=O)OCC)cc1)C(=O)Nc1ccccc1OCC`, the pIC50 was 5.99. The pIC50 values of the last two compounds are within 0.2 log units of each other. For `CCOC(=O)c1[nH]c2ccc(F)cc2c1NC(=O)CN1CCN(c2cccc(C(F)(F)F)c2)CC1` the value was 6.34; for `c1cn(-c2ccc(CNc3nccc(Nc4ccc(OCCN5CCOCC5)cc4)n3)cc2)cn1`, 6.06; for `CC(CCCC(=O)Nc1ccc(CC(C)NCCc2cccc(Cl)c2)cc1)NCCc1cccc(Cl)c1` (centres undefined), 6.21. Then `Cc1cc(NCCc2ccccc2)nc(/N=C(\N)Nc2cccc([N+](=O)[O-])c2)n1`, with 6.85; and `CCN(CC)CCN(Cc1ccc(-c2ccc(C(F)(F)F)cc2)cc1)C(=O)Cn1c(CCc2cccc(F)c2F)cc(=O)c(C)c1C`, with 6.21.

In turn, `Cc1c(Cc2ccccc2)c(=O)oc2c(C)c3c(cc12)CN(CC(C)c1ccccc1)CO3` (centres undefined) had a pIC50 of 6.35.

In turn, `Cc1cccc(Cn2ccc3c4c(N)nc(N)nc4ccc32)c1` had a pIC50 of 8.00. For `CC[C@H](NC(=O)c1c(CN2CCC(N3CCCCC3)CC2)c(-c2ccccc2)nc2cc(O)ccc12)c1ccccc1` the value was 5.86; for `Cc1c(Cl)cccc1S(=O)(=O)Nc1ccc(CCN2CCC(N)CC2)cc1`, 5.84; for `CC1(C)CN2CCCC2c2cc(NC(=O)/C=C/c3ccccc3Cl)ccc21` (centres undefined), 6.00. On to `Cc1[nH]c(C)c(-c2ccc(CCc3ccc(C(F)(F)F)cc3)nc2)c(=O)c1Cl`, for which the pIC50 was 7.05.

`Cc1ccc2c(c1)NC[C@@]21CCN(C[C@@H](O)C2CCN(c3cc(C#N)ccn3)CC2)C[C@@H]1C` gave a pIC50 of 6.21. Then `COc1ccc2nccc([C@@H](O)CN3CCC(NCc4cc5c(Cl)cc(Cl)cc5[nH]4)CC3)c2c1`, with 7.22; and `N#Cc1cccc(CN2CCCN(c3ccc(NC(=O)c4cccs4)cc3)CC2)c1`, with 6.09; and `CNCCCCCCc1ccc(CC(C)NCC(O)c2cccc(Cl)c2)cc1` (centres undefined), with 6.07. For `CS(=O)(=O)CCNc1cc(N2CCc3ncnc(Nc4ccc(OCc5cccc(F)c5)c(Cl)c4)c3C2)ncn1` the value was 6.06; for `O=C(COc1ccccc1Cl)N1CCc2cc3nccc(N4CCN5CCC[C@H]5C4)c3cc21`, 6.13. In turn, `O=C(Nc1ccc(-c2cccc(-c3nc4ccc(C(F)(F)F)cc4[nH]3)c2)cc1)c1ccncc1` showed a pIC50 of 6.18.

Consider `CN(CCc1ccccn1)Cc1ccc(-c2ccc(-c3nc4ccccc4[nH]3)s2)cc1`, for which the pIC50 is 6.23. Then `CCOC(=O)c1c(C)n(-c2ccccc2)c2ccc(OC(=O)c3ccc(S(=O)(=O)N(CC)CC)cc3)cc12`, with 6.12; and `CCn1cnc2c(N3CCCS3(=O)=O)cc(C(=O)N[C@@H](Cc3ccccc3)[C@H](O)CNC(C)(C)c3cccc(C(F)(F)F)c3)cc21`, with 6.64.

With `CC[C@]1(C)C[C@@H](NC(=O)NC(=O)c2ccc(OC)cc2)[C@]2(C)[C@H](C)CC[C@]3(CCC(=O)[C@H]32)[C@@H](C)[C@@H]1OC(=O)NC(=O)c1ccc(OC)cc1`, the pIC50 is 6.00. This pIC50 is 0.64 log units lower than that of the compound before. For `O=C(/C=C/c1ccsc1)N1CCC(CCN2CCC(c3c[nH]c4ccccc34)CC2)CC1` the value was 6.04. Then `Cc1ccc2nc3sc(C(=O)NCCCN4CCC(N5CCCCC5)CC4)cc3cc2c1`, with 6.17; and `Cc1ccc(C(=O)Nc2ccc(C)c(OC3CCN(Cc4ccco4)C3)c2)cc1` (centres undefined), with 6.01. For `COCCNCc1ccc(-c2ccc(CNc3ccc4ncccc4c3)cc2)cc1` the value was 5.98; for `N#Cc1cc([N+](=O)[O-])ccc1-n1nc(-c2cccc(Cl)c2)n(CC2CCCO2)c1=S` (centres undefined), 6.04; for `COc1cccc(Nc2nc(C)cc(Nc3cccc(C#N)c3)n2)c1`, 5.97. For `COc1c(C2CCN(CCCCNC(=O)c3ccc(-c4ccc(C(F)(F)F)cc4)c(C(=O)OC(C)C)c3)CC2)ccc2c1CCCC2`, the pIC50 is 6.07. In turn, `Cc1cc(OCCCn2ccnc2)ccc1-c1csc(NC(N)=NCc2ccccc2)n1` showed a pIC50 of 6.06. The pIC50 values of the last two compounds are within 0.2 log units of each other. Consider `CN(C)CCCOc1ccc(CNCC(C)(C)c2nc(-c3ccc(Cl)c(O)c3)c(-c3ccncc3)[nH]2)cc1`, for which the pIC50 is 6.15. Then `c1cc(CN2CCC(CCN3CCCCC3)CC2)cc(-c2csc(-c3nc4ccccc4[nH]3)c2)c1`, with 6.85; and `CCCCNCc1ccc(-c2nc(CN(C(=O)Nc3cc([N+](=O)[O-])ccc3F)C3Cc4ccccc4C3)cs2)cc1`, with 5.96; and `Cc1cc(-c2ccc(CNCc3ccsc3)cc2)ccc1S(=O)(=O)NCCN1CCCC1`, with 6.14. For `Oc1ccc(Cl)cc1CN1CCC2(CCCN(CC3CCC3)C2)C1` (centres undefined) the value was 6.43; for `COc1ccc2c(Nc3ccc(N4CCN(C)CC4)cc3)cc(C)nc2c1`, 6.14; for `CCCOc1cc2c(cc1OCCC)C(C=Cc1ccc(Cl)cc1Cl)=NC(C)C2` (centres undefined), 6.43. For `Cc1cccc2[nH]c(-c3ccc(-c4ccc(CNCc5ccc(CN)cc5)cc4)s3)nc12` the value was 6.36; for `Cc1cc(Cl)ccc1NC(=O)NCCCCCN1CCC(c2c[nH]c3ccccc23)CC1`, 6.00.

`CCCC(C)NC(=O)c1cnn(-c2ccc(C(C)(C)C)cc2)c1OCc1ccc(Br)cc1` (centres undefined) showed a pIC50 of 5.97. For `Cc1[nH]c2ccccc2c1C1=CCN(CCCCCC23CCCc4cccc(c42)NC3=O)CC1` (centres undefined) the value was 6.60. `Cc1cccc2[nH]c(-c3cccc(-c4ccc(NC(=O)C5CC(=O)Nc6ccccc65)cc4)c3)nc12` (centres undefined) had a pIC50 of 6.16. Take `CS(=O)(=O)CCNC(=O)c1ccc(-c2cc3c(Nc4ccc5c(cnn5Cc5ccccc5)c4)ncnc3cn2)o1`: the pIC50 was 6.00.

`CCC[C@@H]([C@@H](CC1CCCCC1)C(=O)N[C@H](C(=O)Nc1nccs1)C(C)(C)SCCNC(=O)OCc1ccccn1)N(O)C=O` had a pIC50 of 6.80. Against the preceding compound, the pIC50 is 0.80 log units higher. For `CCOC(=O)c1c(CNc2ccncc2)n(C)c2cc(Br)c(OC(C)=O)cc12` the value was 6.43.

In turn, `COc1cccc(O)c1CNCC(O)c1cccc(C(F)(F)F)c1` (centres undefined) gave a pIC50 of 6.02. Then `Cc1ccc(C)c2sc(N3CCN(C(=O)c4ccc([N+](=O)[O-])o4)CC3)nc12`, with 6.09.

Regarding `O=C(Nc1cccc(-c2nn3ncccc3c2-c2ccnc(Nc3ccc(N4CCOCC4)cc3)n2)c1)c1c(F)cccc1F`, the pIC50 is 6.80. As to `CC(C)CNCc1cccc(-c2ccccc2CNC2CCN(Cc3ccccc3)CC2)c1`, the pIC50 is 6.24. For the compound `O=C(Nc1ccc(-c2nc3ccccc3[nH]2)cc1)C1CCN(Cc2cccc(F)c2F)CC1`, the pIC50 was 5.96. The compound `CCC(O)(C#Cc1c(C)nc(N)nc1N)CC` gave a pIC50 of 6.19. This pIC50 is 0.23 log units higher than that of the compound before. For `COc1ccc(-n2cc(C(=O)c3cc(Br)ccc3O)cc(C#N)c2=O)cc1Cl` the value was 6.10; for `Cc1cc(NC(=O)Nc2ccc(Cl)cc2F)c2ccccc2n1`, 6.26.

Turning to `Cc1ccc(CNC(=O)[C@H](Cc2ccccc2)Nc2ccnc(NCC3CCCCC3)n2)cc1`, the pIC50 is 5.92. Then `COc1cc(C2=NN(S(=O)(=O)c3c(Cl)cc(Cl)cc3Cl)CCCC2)ccc1Cl`, with 6.54; and `Cc1cc(C)n(-c2nc(Nc3cccc(C(F)(F)F)c3)nc(-n3nc(C)cc3C)n2)n1`, with 6.44.

In turn, `CC(CCc1ccccc1)NCC(O)c1cccc(C(F)(F)F)c1` (centres undefined) showed a pIC50 of 6.15. This pIC50 lies 0.29 log units lower than the previous one. Regarding `Cc1cc(C)cc(OCC(O)CN(Cc2cc(Cl)cc(Cl)c2)C(=O)Nc2ccccc2Cl)c1` (centres undefined), the pIC50 is 6.03. For `Cc1cccc(CNc2nc(C)cc(N[C@@H](Cc3ccccc3)C(=O)NC3CCCC3)n2)c1` the value was 6.19.

The compound `Cc1cc(-c2ccc3occ(CCN)c3c2)cnc1N` showed a pIC50 of 6.06. Then `CCCN(CCC)C(C)CCC(C)Nc1c2ccc(Cl)cc2nc2ccc(OC)cc12` (centres undefined), with 7.15; and `CC(C)(C)NCCN(Cc1ccc(-c2ccc(C(F)(F)F)cc2)cc1)C(=O)Cn1c(CCc2cccc(F)c2F)nc(=O)c2c1CCC2`, with 6.02. In turn, `COc1ccc(Cc2nc3c(n2C(C)=O)SC(c2ccc(Cl)c(Cl)c2)=NN3C(C)=O)cc1` gave a pIC50 of 6.09. The pIC50 values of the last two compounds are within 0.2 log units of each other. For `COc1ccc(C=NNc2cc(C)nc3ccccc23)cc1OC` the value was 6.07.

The record behind these values is PubChem BioAssay AID2305 (GlaxoSmithKline (GSK), 2010).
